Earlier results in patent publication US20230159896A1, “MULTI-LINEAGE CARDIOVASCULAR MICROFLUIDIC ORGAN-CHIP” (CEDARS-SINAI MEDICAL CENTER, priority 2020, published 2023).
“Also recorded” adds a separate entry of the source.

Tests used:
[1] = clinical, at common dose; for Cmax: read-out: Molar Cmax
[2] = for Cardiovascular side effects: patients
[3] = system: patient-specific hiPSC-CMs
zebrafish = zebrafish model
PI3K/Akt = conditions: hiPSC-CMs, previous study

Peak plasma concentration (Cmax) [1] [ng/mL]	Cmax [1] [nM]	Compound	Cardiovascular side effects [2]	also measured
12.6	900	CNC(=O)c1ccccc1Sc1ccc2c(/C=C/c3ccccn3)n[nH]c2c1 [axitinib]	–	–
–	–	COc1cc2ncnc(Nc3ccc(F)c(Cl)c3)c2cc1OCCCN1CCOCC1 [gefitinib]	typically does not exhibit cardiotoxic side effects	–
660	1540	COc1cc2nccc(Oc3ccc(NC(=O)NC4CC4)c(Cl)c3)c2cc1C(N)=O [lenvatinib]	–	–
1960	3650	Cc1ccc(Nc2nccc(N(C)c3ccc4c(C)n(C)nc4c3)n2)cc1S(N)(=O)=O [pazopanib]	may cause heart failure or vascular toxicity	–
–	140	Cc1ccc(C(=O)Nc2ccc(CN3CCN(C)CC3)c(C(F)(F)F)c2)cc1C#Cc1cnc2cccnn12 [ponatinib]	severe vascular toxicity	FDA black box warning ([2]; human, in vivo): arterial occlusions and venous thromboembolisms as well as hepatotoxicity; Cytotoxicity on hiPSC-CMs relative to other TKIs ([3]; previous hiPSC-CM study): most cytotoxic of all TKIs studied
–	–	CNC(=O)c1cc(Oc2ccc(NC(=O)Nc3ccc(Cl)c(C(F)(F)F)c3)cc2)ccn1 [sorafenib]	cause hypertension, ischemia, and cardiac side-effects; also recorded: may cause heart failure or vascular toxicity	Survival (zebrafish): decrease survival
960	–	COc1cc2c(Nc3ccc(Br)cc3F)ncnc2cc1OCC1CCN(C)CC1 [vandetanib]	–	hiPSC-CM contractile function ([3]; clinically-relevant concentrations, TKIs with FDA black-box warnings): contractile dysfunction
–	–	insulin: Akt pathway activator	–	PI3K/Akt phosphorylation (PI3K/Akt): significantly enhanced; Effect of co-treatment on TKI-induced CM toxicity ([3]; co-treatment with Akt pathway activators): reversed TKI-induced CM toxicity

Compound	Peak plasma concentration (Cmax) [1] [ng/mL]	Cmax [1] [nM]	Cardiovascular side effects [2]	also measured
CNC(=O)c1cc(Oc2ccc(NC(=O)Nc3ccc(Cl)c(C(F)(F)F)c3)c(F)c2)ccn1 [regorafenib]	2500	8080	–	–
CCN(CC)CCNC(=O)c1c(C)[nH]c(/C=C2\C(=O)Nc3ccc(F)cc32)c1C [sunitinib]	81.9	1200	cause hypertension, ischemia, and cardiac side-effects; also recorded: may cause heart failure or vascular toxicity	Survival (zebrafish): decrease survival
